According to patent US20230085549A1 (Janssen Pharmaceutica NV, priority 2021, published 2023):
pKi: −log10 of the molar value. Where two headings read alike, the source gives them in different places.

Experiments:
[1] = test system: mouse lymphoma; assay: Mouse lymphoma assay; type: cell-based
[2] = test system: bacteria; assay: In vitro Ames bacterial reverse mutation test; type: cell-based
[3] = Solubility in solvents and water; type: physicochemical
[4] = clinical; conditions: human, in vivo, po, 4 mg
[5] = Drug interaction studies with oral paliperidone; type: in vivo, human
From the text: Higher doses of paroxetine have not been studied.
This interaction has not been studied with INVEGA HAFYERA.

[6] = biological target: α2 adrenergic receptor; assay: In vitro receptor binding affinity; conditions: antagonist
[7] = Study with oral immediate-release 14C-paliperidone (excretion, metabolism); type: in vivo
[8] = biological target: α1 adrenergic receptor; assay: In vitro receptor binding affinity; conditions: antagonist
[9] = biological target: serotonin 5HT2A receptor (Homo sapiens, UniProt P28223); assay: biochemical
[10] = test system: CYP1A2, CYP2A6, CYP2C9, and CYP2C19; assay: CYP substrate studies in vitro; type: in vitro ADME, human
[11] = test system: rat bone marrow; assay: In vivo rat bone marrow micronucleus test
[12] = biological target: central dopamine D2 receptor (Homo sapiens, UniProt P14416); assay: In vitro receptor binding affinity; conditions: antagonist
[13] = test system: pregnant rats and rabbits; assay: Animal reproduction studies, oral paliperidone during organogenesis; type: in vivo; conditions: period of organogenesis, mg/m^2
[14] = Plasma protein binding; type: in vitro ADME; conditions: racemic
[15] = biological target: central Dopamine type 2 (D2) receptor (Homo sapiens, UniProt P14416); conditions: at paliperidone plasma concentration 7.5 ng/mL; cited from earlier work
[16] = biological target: β2-adrenergic receptor (Homo sapiens, UniProt P07550); assay: In vitro receptor binding affinity
[17] = Pharmacokinetics in specific populations (oral paliperidone studies, population PK modelling); type: in vivo, human; conditions: elderly subjects
From the text: No specific pharmacokinetic studies have been performed with […] in specific populations. All the information is obtained from studies with oral paliperidone or is based on the population pharmacokinetic modelling of oral paliperidone and […].

[18] = test system: rats; assay: Oral paliperidone study of fertility in rats; type: in vivo
Protocol: These parameters were not affected at an oral dose of 0.63 mg/kg, which is half of the oral MRHD of 12 mg based on mg/m^2 body surface area.
(§1) Serum testosterone and sperm parameters partially recovered, but remained decreased after the last observation (two months after treatment was discontinued).

[19] = test system: cytochrome P450 isozymes, including CYP1A2, CYP2A6, CYP2C8/9/10, CYP2D6, CYP2E1, CYP3A4, and CYP3A5; assay: Inhibition of drug metabolism in human liver microsomes; type: in vitro ADME
[20] = test system: juvenile rats; assay: Juvenile rat study with oral paliperidone; type: in vivo
[21] = biological target: P-glycoprotein (P-gp) (Homo sapiens, UniProt P08183); assay: P-gp substrate and inhibition studies in vitro; type: in vitro ADME
[22] = human, in vivo, po
From the text: Observed signs and symptoms included extrapyramidal symptoms and gait unsteadiness.

[23] = test system: cholinergic muscarinic receptors; assay: In vitro receptor binding affinity
[24] = biological target: β1-adrenergic receptor (Homo sapiens, UniProt P08588); assay: In vitro receptor binding affinity
[25] = test system: pregnant mice, rats and rabbits; assay: Reproduction toxicity studies with orally administered risperidone; type: in vivo
From the text: Increased neuronal cell death occurred in the fetal brains of the offspring of pregnant rats treated at 0.5 to 1.2 times the MRHD; the postnatal development and growth of the offspring was delayed.

[26] = test system: Juvenile dogs; assay: Juvenile dog study with oral risperidone, 40 weeks
[27] = test system: Beagle dogs; assay: Subchronic study in Beagle dogs with risperidone; type: in vivo; conditions: all doses tested ([…]-5.0 mg/kg)
From the text: as §1

P-glycoprotein (P-gp), sequence (P08183 whole entry): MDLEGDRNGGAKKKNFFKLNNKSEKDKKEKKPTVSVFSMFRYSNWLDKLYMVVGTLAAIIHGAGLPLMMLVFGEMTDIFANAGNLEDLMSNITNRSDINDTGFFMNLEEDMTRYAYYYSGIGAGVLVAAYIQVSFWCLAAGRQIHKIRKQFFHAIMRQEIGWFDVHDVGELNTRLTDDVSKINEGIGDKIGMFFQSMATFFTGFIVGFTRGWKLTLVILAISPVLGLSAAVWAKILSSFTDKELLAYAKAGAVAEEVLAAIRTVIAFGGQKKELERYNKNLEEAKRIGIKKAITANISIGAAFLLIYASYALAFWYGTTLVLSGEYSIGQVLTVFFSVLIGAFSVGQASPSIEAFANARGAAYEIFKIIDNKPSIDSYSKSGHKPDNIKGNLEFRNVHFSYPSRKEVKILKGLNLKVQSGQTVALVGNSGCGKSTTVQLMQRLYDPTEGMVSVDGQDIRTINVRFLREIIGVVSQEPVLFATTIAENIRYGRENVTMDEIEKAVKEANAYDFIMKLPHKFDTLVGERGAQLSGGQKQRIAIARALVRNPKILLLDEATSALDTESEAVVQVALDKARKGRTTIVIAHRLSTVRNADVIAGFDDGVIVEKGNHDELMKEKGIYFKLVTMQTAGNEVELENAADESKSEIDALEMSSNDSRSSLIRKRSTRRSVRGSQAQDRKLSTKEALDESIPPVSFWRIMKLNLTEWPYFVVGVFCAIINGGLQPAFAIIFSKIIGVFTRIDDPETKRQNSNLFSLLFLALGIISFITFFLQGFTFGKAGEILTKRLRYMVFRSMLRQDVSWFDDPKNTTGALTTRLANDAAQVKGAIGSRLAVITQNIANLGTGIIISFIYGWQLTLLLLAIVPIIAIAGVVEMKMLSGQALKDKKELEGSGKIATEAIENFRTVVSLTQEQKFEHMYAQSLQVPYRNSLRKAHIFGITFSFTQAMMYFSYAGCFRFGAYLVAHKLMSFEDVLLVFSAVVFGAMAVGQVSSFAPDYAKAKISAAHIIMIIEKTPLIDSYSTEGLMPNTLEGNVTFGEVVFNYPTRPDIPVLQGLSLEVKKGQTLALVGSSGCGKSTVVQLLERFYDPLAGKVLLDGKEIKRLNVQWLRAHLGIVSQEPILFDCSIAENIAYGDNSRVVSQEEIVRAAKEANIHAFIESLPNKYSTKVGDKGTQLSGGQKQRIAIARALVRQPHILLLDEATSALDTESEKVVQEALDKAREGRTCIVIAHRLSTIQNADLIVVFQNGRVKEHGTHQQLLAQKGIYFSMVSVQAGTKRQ
serotonin 5HT2A receptor, sequence (P28223 whole entry): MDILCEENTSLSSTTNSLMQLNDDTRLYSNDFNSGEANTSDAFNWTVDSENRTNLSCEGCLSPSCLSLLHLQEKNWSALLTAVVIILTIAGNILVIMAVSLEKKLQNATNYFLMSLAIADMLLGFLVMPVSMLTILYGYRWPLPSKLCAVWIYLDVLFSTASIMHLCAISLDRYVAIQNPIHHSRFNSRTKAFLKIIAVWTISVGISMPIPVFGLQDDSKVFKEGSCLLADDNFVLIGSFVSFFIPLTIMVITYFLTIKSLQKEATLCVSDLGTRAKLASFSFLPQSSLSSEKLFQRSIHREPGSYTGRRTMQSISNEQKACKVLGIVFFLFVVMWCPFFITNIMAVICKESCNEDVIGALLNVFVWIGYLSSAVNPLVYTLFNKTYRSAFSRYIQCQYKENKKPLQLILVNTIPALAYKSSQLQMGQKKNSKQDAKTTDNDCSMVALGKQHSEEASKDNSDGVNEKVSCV
central Dopamine type 2 (D2) receptor, sequence (P14416 whole entry): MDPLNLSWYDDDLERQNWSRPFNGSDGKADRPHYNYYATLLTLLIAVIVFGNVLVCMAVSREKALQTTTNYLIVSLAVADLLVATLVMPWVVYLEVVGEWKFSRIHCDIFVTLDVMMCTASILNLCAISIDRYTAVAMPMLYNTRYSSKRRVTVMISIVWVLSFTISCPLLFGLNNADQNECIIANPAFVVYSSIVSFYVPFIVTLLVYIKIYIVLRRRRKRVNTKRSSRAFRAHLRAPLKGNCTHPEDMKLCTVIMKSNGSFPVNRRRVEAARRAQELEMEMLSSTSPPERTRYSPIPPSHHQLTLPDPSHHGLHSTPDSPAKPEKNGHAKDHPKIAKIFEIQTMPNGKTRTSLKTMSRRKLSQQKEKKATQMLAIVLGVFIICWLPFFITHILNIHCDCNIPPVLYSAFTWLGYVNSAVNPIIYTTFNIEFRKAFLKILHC
central dopamine D2 receptor, sequence (P14416 whole entry): as above
β2-adrenergic receptor, sequence (P07550 whole entry): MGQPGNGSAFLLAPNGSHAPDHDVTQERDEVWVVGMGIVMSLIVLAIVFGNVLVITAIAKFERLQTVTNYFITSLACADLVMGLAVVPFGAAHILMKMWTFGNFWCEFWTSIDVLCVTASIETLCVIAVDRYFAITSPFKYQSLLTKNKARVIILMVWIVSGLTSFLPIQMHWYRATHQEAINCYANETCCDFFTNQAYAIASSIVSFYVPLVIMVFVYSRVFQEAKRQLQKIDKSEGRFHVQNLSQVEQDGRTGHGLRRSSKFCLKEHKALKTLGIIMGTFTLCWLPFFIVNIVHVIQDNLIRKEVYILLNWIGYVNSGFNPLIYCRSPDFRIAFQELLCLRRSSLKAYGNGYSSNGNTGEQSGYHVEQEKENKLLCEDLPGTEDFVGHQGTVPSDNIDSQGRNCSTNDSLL
β1-adrenergic receptor, sequence (P08588 whole entry): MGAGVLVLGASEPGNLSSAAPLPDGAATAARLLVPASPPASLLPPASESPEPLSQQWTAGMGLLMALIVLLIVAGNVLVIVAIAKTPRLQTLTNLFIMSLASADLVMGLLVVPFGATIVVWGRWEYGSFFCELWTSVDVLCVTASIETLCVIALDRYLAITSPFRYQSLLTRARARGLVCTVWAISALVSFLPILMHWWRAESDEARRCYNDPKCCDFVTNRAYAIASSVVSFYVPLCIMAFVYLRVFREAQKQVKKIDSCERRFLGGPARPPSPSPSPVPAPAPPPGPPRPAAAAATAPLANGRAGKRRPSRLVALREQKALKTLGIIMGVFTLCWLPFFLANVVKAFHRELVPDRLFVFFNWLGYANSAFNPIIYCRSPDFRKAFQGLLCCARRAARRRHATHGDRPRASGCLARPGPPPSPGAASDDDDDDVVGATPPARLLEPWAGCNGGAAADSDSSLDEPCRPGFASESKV

CCCCCCCCCCCCCCCC(=O)OC1CCCn2c1nc(C)c(CCN1CCC(c3noc4cc(F)ccc34)CC1)c2=O (racemic) [paliperidone palmitate, (±)-3-[2-[4-(6-fluoro-1,2-benzisoxazol-3-yl)-1-piperidinyl]ethyl]-6,7,8,9-tetrahydro-2-methyl-4-oxo-4H-pyrido[1,2-c]pyrimidin-9-yl hexadecanoate]
genotoxicity [1]: no genotoxicity | genotoxicity [2]: no genotoxicity | solubility in ethanol and methanol [3]: very slightly soluble | solubility in ethyl acetate [3]: slightly soluble | solubility in polyethylene glycol 400 and propylene glycol [3]: practically insoluble | water solubility [3]: extreme low water solubility

Cc1nc2n(c(=O)c1CCN1CCC(c3noc4cc(F)ccc34)CC1)CCCC2O (stereo not drawn) [paliperidone]
Cmax [4]: 35 ng/mL | increase in Cmax and AUC of paliperidone ([5]; single 12 mg extended-release tablet with divalproex sodium ER two 500 mg tablets once daily): approximately 50% | increase in renal clearance of paliperidone ([5]; with carbamazepine): 35% | change in mean Cmax and AUC at steady-state ([5]; with paroxetine 20 mg/day oral): increase in mean Cmax and AUC values | pKi [6]: 7.77 | dose excreted unchanged into urine ([7]; one week after single oral dose of 1 mg): 59% | administered radioactivity recovered in the feces ([7]; single oral dose of 1 mg): 11% | administered radioactivity recovered in urine ([7]; single oral dose of 1 mg): Approximately 80% | pKi [8]: 8.40 | pKi [9]: 8.92 to 9.10 | substrate of CYP isozymes [10]: not a substrate for CYP1A2 | substrate of CYP isozymes ([10]; listed as Paliperidone): not a substrate | genotoxicity [11]: not genotoxic | pKi [12]: 8.55 to 8.80 | exposure without increases in fetal abnormalities [13]: up to 8 times the oral MRHD of 12 mg | fraction unbound [14]: 0.26 | central D2 receptor occupancy [15]: 60% | affinity [16]: no appreciable affinity | increase of Cmax and AUC compared to young subjects [17]: 1.2 fold | genotoxicity [1]: not genotoxic | genotoxicity [2]: not genotoxic | oral doses at which percentage of treated female rats that became pregnant was not affected ([18]; 2 times the oral MRHD of 12 mg): up to 2.5 mg/kg/day | dose with increased pre- and post-implantation loss and slightly decreased live embryos ([18]; female, rat, in vivo, po): 2.5 mg/kg | oral dose at which these parameters were not affected ([18]; half of the oral MRHD of 12 mg): 0.63 mg/kg | oral doses at which fertility of male rats was not affected ([18]; mg/m^2): up to 2 times the oral MRHD of 12 mg/day | inhibition of metabolism of drugs metabolized by cytochrome P450 isozymes [19]: does not substantially inhibit | no-effect dose for reversible impairment of learning and memory ([20]; females only, oral, days 24 to 73 of age): 0.63 mg/kg/day | doses without other consistent effects on neurobehavioral or reproductive development ([20]; highest dose tested): ≤ 2.5 mg/kg/day | P-gp inhibition ([21]; at high concentrations): weak inhibitor | P-gp substrate ([21]; in vitro): substrate of P-glycoprotein (P-gp) | highest estimated ingestion in overdose [22]: 405 mg | affinity [23]: no appreciable affinity | affinity [24]: no appreciable affinity

Cc1nc2n(c(=O)c1CCN1CCC(c3noc4cc(F)ccc34)CC1)CCCC2 [risperidone]
maternal toxicity ([25]; pregnant mice): 4 times the MRHD | learning impaired in adult offspring ([25]; pregnant rats): 0.6 times the MRHD | oral doses at which pup deaths occurred ([25]; rat reproduction studies, mg/m^2): less than the MRHD | doses with no evidence of teratogenicity ([25]; rats and rabbits, embryo-fetal developmental toxicity): up to 6 times the MRHD of 16 mg/day | no-effect dose for decreased bone length and density [26]: 0.31 mg/kg/day | effect on serum testosterone and sperm [27]: decreases in serum testosterone and in sperm motility and concentration
